Values joined by “and” are separate entries in the source; they are usually repeats but may differ in a detail not shown here. Equal values may be shown once. Read-outs that look alike come from different tables or passages of the source.
Experiments:
[1] = system: H460 cells; experiment: CCK-8 antiproliferation assay, H460; conditions: for Inhibitory efficacy: H460 cells
[2] = system: PC-9 cells; experiment: Annexin V/PI flow cytometry for cell apoptosis, PC-9; assay type: cell-based, human; design: key to Apoptosis (sum of Q2 and Q3) / Apoptosis, Average: % apoptotic cells (Annexin V/PI flow cytometry); conditions: for Apoptosis, Average / Lymphocytes/Q2: FITC-A+ , PI-A+ Freq. of Parent / Lymphocytes/Q3: FITC-A+ , PI-A- Freq. of Parent / Apoptosis (sum of Q2 and Q3): PC-9, 48h; for Apoptosis, Average: average of three repeats; for Lymphocytes/Q2: FITC-A+ , PI-A+ Freq. of Parent / Lymphocytes/Q3: FITC-A+ , PI-A- Freq. of Parent: single runs; for Apoptosis (sum of Q2 and Q3): single repeats (Repeat 1-3)
Method: To establish whether the antiproliferative efficacy is associated with apoptosis, PC-9 and H460 cells were treated with compound e4 or e12 of various concentrations (4, 8 and 12 μM) for 48 h, and then assessed with flow cytometry.
Cell-apoptosis analysis was carried out by flow cytometry using the Annexin V/PI apoptosis kit according to the manufacturer’s manual. Briefly, PC-9 or H460 (3 × 10^4–5 × 10^4/well) cells were seeded in 12-well plates for 24 h, and then treated with 0.1% DMSO (as control) or various concentrations of compound e4 or e12 for 48 h, respectively. Cells were harvested, washed with PBS, and then incubated with 100ul of 1X Annexin V binding buffer containing 1 μl PI and 1 μl FITC Annexin V for 15 min at RT in the dark. 200 µl of 1X binding buffer were added to each tube for flow cytometry analysis (BD LSRFortessa™ Flow Cytometer). The percentages of apoptotic cells were analyzed using FlowJo soft.

[3] = system: AKT phosphorylation (S473) in PC-9 cells; experiment: Western blot, p-AKT/AKT in PC-9; conditions: for p-AKT/AKT: band density ratio; for p-AKT/AKT relative to DMSO: ratio normalised to DMSO = 1
Method: (§3) We also performed western blot analysis to evaluate the impact of e4 and e12 on EGFR signaling in PC-9 and H460 cells.
(§4) H460 cells were seeded in six-well plates with serum-free medium overnight, and then treated complete medium containing 0.1% DMSO, various concentrations (0.1, 1 and 10 μM) of either compound e4 or e12 for 2 h, respectively. […] Then the H460 cells were treated with complete medium containing EGF (10 ng/ml) for 5 min. Then the cells were harvested and washed with PBS, centrifuged, resuspended in 100–200 μl of RIPA lysis buffer containing Protease and Phosphatase Inhibitor Cocktail (1X), and then centrifuged for 5 min at 12,000 rpm at 4°C. The supernatant was used for protein analysis. […] Then the membrane was washed 5 min (X3) and incubated at 1:3,000 dilution of anti-rabbit secondary antibodies or 1:1,000 dilution of anti-mouse secondary antibodies for 1 h at RT. After washing with TBST 5 min (X3), protein bands were developed by chemiluminescence. The protein levels were quantified by the gray values of the bands in the resulting images by ImageJ, and the control group was used as the standard. […] The PC-9 cells were harvested and analyzed as above.

[4] = system: H460 cells; experiment: Flow cytometry detection for cell cycle, H460; assay type: cell-based, human; conditions: for G0/G1 / G2/M / S: single experiments (20200711, 20200810, 20200812)
Method: (§1) To investigate the effects of compounds e4 and e12 on various phases of the cell cycle, PC-9 cells were treated with compound e4 or e12 of various concentrations for 24 h, and H460 cells were treated with compound e4 or e12 of various concentrations for 12 h.
(§2) PC-9 or H460 (2 × 10^5–3 × 10^5/well) cells were seeded in six-well plates for 24 h, and then treated with 0.1% DMSO (as control), various concentrations of either compound e4 or e12 for 24 h (PC-9) or 12 h (H460), respectively. The treated cells were harvested, washed with PBS, and then stained using the cell-cycle staining kit according to the manufacturer’s manual. The distribution of cell-cycle phases with different DNA contents was determined by flow cytometry (BD LSRFortessa™ Flow Cytometer) and analyzed using ModFit LT software.

[5] = system: A549 cells; experiment: CCK-8 antiproliferation assay, A549; conditions: for Inhibitory efficacy: A549 cells
Method: The compounds were dissolved in DMSO to make a 20 μM stock solution and diluted to the concentration of working solutions with complete growth medium before administration.
Cells were seeded in 96-well plates: 3,000–5,000 cells/well in 100 ul. One day after seeding, the test compounds at concentration between 1.0 and 16.0 μ M or 0.1% DMSO (as control) were added to cells in triplicate. 48 h later, CCK-8 was added and incubated the plate for 1–4 h in the incubator. The absorbance at 450 nm were measured using a microplate reader (Bio-Tek).

[6] = target: wild-type EGFR (Homo sapiens, UniProt P00533); experiment: EGFR kinase assay (ELISA); conditions: for A450: raw ELISA absorbance
[7] = system: PC-9 cells; experiment: Flow cytometry detection for cell cycle, PC-9; assay type: cell-based, human; conditions: for G0/G1 / G2/M / S: single repeats (Repeat 1-3)
Method: as §1, §2

[8] = system: EGFR phosphorylation (Tyr1068) in H460 cells; experiment: Western blot, p-EGFR/EGFR in H460; conditions: for p-EGFR/EGFR: band density ratio; for p-EGFR/EGFR relative to DMSO: ratio normalised to DMSO
Method: as §3, §4

[9] = system: EGFR phosphorylation (Tyr1068) in PC-9 cells; experiment: Western blot, p-EGFR/EGFR in PC-9; conditions: for p-EGFR/EGFR: band density ratio; for p-EGFR/EGFR relative to DMSO: ratio normalised to DMSO = 1
Method: as §3, §4

[10] = 8uM, given as fraction, Repeat 1-3
[11] = 16uM, given as fraction, Repeat 1-3

Chain of wild-type EGFR (P00533 25-1210): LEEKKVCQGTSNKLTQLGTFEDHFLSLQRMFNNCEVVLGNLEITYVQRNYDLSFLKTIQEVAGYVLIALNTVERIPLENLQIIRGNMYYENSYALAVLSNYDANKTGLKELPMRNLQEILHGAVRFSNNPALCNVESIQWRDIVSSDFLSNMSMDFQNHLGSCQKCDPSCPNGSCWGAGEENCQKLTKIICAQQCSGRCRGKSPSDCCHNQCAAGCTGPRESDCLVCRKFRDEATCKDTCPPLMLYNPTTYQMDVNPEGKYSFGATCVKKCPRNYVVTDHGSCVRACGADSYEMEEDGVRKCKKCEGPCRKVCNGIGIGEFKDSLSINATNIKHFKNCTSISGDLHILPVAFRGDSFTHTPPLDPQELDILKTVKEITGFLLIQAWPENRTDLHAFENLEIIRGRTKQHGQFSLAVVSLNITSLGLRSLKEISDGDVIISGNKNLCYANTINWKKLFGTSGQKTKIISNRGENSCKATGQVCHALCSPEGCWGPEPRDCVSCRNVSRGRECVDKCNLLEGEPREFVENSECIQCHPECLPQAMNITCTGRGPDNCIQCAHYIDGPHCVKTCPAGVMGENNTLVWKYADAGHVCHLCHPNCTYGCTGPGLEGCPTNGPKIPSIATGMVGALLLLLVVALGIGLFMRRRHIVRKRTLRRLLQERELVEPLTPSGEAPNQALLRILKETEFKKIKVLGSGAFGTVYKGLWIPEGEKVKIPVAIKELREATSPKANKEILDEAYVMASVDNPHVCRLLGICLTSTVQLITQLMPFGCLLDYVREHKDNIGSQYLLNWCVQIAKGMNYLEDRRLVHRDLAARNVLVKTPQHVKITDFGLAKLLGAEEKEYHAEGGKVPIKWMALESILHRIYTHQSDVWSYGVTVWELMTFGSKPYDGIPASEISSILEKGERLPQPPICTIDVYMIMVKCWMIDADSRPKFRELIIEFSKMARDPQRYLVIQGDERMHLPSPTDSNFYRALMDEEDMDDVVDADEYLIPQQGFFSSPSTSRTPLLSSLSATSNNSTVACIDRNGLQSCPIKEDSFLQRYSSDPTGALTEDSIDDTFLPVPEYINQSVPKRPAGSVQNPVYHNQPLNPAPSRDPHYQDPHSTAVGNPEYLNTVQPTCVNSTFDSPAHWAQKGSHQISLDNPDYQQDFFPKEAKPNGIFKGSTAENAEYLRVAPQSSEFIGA

SMILES: COCCOc1cc2ncnc(Nc3cccc(-c4cn(Cc5cc(Br)cc(Br)c5)nn4)c3)c2cc1OCCOC [e4, [6,7-Bis-(2-methoxy-ethoxy)-quinazolin-4-yl]-{3-[1-(3,5-dibromo-benzyl)-1H-[1,2,3]triazol-4-yl]-phenyl}-amine]
- Inhibitory efficacy ([1]; 1uM, given as fraction, Repeat 1-3): 0.09927 and 0.1204
- Inhibitory efficacy ([1]; 2uM, given as fraction, Repeat 1-3): 0.08541 and 0.1118
- Inhibitory efficacy [1, 10]: 0.8422 and 0.8158
- Inhibitory efficacy [1, 11]: 0.9425 and 0.965
- IC50 ([1]; Homo sapiens, NCI-H460, 48 h, read-out: IC50 (μM) H460, CCK-8, 48 h, average ± SD of three independent experiments): < 10 µM
- inhibition at 1 µM ([1]; Homo sapiens, NCI-H460, read-out: Inhibitory efficacy, H460 cells, 1uM, given as fraction, Repeat 1-3): 19.4%
- inhibition at 2 µM ([1]; Homo sapiens, NCI-H460, read-out: Inhibitory efficacy, H460 cells, 2uM, given as fraction, Repeat 1-3): 16.7%
- inhibition at 8 µM ([1]; Homo sapiens, NCI-H460, read-out: Inhibitory efficacy, H460 cells, 8uM, given as fraction, Repeat 1-3): 79.5%
- inhibition at 16 µM ([1]; Homo sapiens, NCI-H460, read-out: Inhibitory efficacy, H460 cells, 16uM, given as fraction, Repeat 1-3): 95%
- IC50 ([1]; read-out: IC50 (μM) H460, CCK-8, 48 h, average ± SD of three independent experiments): 5.18 ± 0.78 µM
- cell apoptosis (flow cytometry) ([2]; PC-9, 4, 8 and 12 μM, 48 h): significant cell apoptosis
- Apoptosis, Average ([2]; 4uM): 10.24
- Lymphocytes/Q2: FITC-A+ , PI-A+ Freq. of Parent ([2]; 4uM): 4.32% and 13.0% and 11.9%
- Lymphocytes/Q3: FITC-A+ , PI-A- Freq. of Parent ([2]; 4uM): 0.25% and 0.69% and 0.56%
- Apoptosis, Average ([2]; 8uM): 14.45
- Apoptosis (sum of Q2 and Q3) ([2]; 8uM): 10.39 and 18.02 and 14.93
- Lymphocytes/Q2: FITC-A+ , PI-A+ Freq. of Parent ([2]; 8uM): 9.22% and 16.0% and 13.2%
- Lymphocytes/Q3: FITC-A+ , PI-A- Freq. of Parent ([2]; 8uM): 1.17% and 2.02% and 1.73%
- Apoptosis, Average ([2]; 12uM): 35.74
- Apoptosis (sum of Q2 and Q3) ([2]; 12uM): 33.11 and 39.69 and 34.42
- Lymphocytes/Q2: FITC-A+ , PI-A+ Freq. of Parent ([2]; 12uM): 28.20% and 34.7% and 29.1%
- Lymphocytes/Q3: FITC-A+ , PI-A- Freq. of Parent ([2]; 12uM): 4.91% and 4.99% and 5.32%
- p-AKT/AKT ([3]; PC-9, 0.1 uM): 0.8512
- p-AKT/AKT relative to DMSO ([3]; PC-9, 0.1 uM): 0.8172
- p-AKT/AKT ([3]; PC-9, 1 uM): 0.7155
- p-AKT/AKT relative to DMSO ([3]; PC-9, 1 uM): 0.6869
- p-AKT/AKT ([3]; PC-9, 10 uM): 0.5338
- p-AKT/AKT relative to DMSO ([3]; PC-9, 10 uM): 0.5125
- phosphorylation of AKT (western blot) ([3]; PC-9, especially at 10 μM): suppressed
- G0/G1 ([4]; H460, 4uM): 42.32% and 41.29% and 53.43%
- G2/M ([4]; H460, 4uM): 16.95% and 17.5% and 12.27%
- S ([4]; H460, 4uM): 40.73% and 41.21% and 34.3%
- G0/G1 ([4]; H460, 8uM): 48.11% and 44.75% and 59.66%
- G2/M ([4]; H460, 8uM): 16.79% and 18.81% and 11.77%
- S ([4]; H460, 8uM): 35.11% and 36.45% and 28.56%
- G0/G1 ([4]; H460, 12uM): 48.29% and 43.3% and 54.65%
- G2/M ([4]; H460, 12uM): 17.85% and 18.86% and 13.72%
- S ([4]; H460, 12uM): 33.86% and 38.02% and 31.63%
- percentage of cells in the G0/G1 phase ([4]; H460, various concentrations, 12 h): induced higher percentages
- Inhibitory efficacy ([5]; 4uM, given as fraction, Repeat 1-3): 0.2144 and 0.2227
- Inhibitory efficacy [5, 10]: 0.7075 and 0.6166
- Inhibitory efficacy [5, 11]: 0.9444 and 0.9355
- IC50 ([5]; Homo sapiens, A549, 48 h, read-out: IC50 (μM) A549, CCK-8, 48 h, average ± SD of three independent experiments): < 10 µM
- inhibition at 4 µM ([5]; Homo sapiens, A549, read-out: Inhibitory efficacy, A549 cells, 4uM, given as fraction, Repeat 1-3): 35.6%
- inhibition at 8 µM ([5]; Homo sapiens, A549, read-out: Inhibitory efficacy, A549 cells, 8uM, given as fraction, Repeat 1-3): 75.6%
- inhibition at 16 µM ([5]; Homo sapiens, A549, read-out: Inhibitory efficacy, A549 cells, 16uM, given as fraction, Repeat 1-3): 94.8%
- IC50 ([5]; read-out: IC50 (μM) A549, CCK-8, 48 h, average ± SD of three independent experiments): 5.8 ± 0.78 µM
- inhibition at 100 fM ([6]; concentration 0.0001 nM (reference for normalisation), one value per replicate column): 0%
- Inhibition ([6]; concentration 0.03 nM, one value per replicate column, 3e-05 µM): 0.3205 and 0.9868
- inhibition at 0.0003 µM ([6]; concentration 0.3 nM, one value per replicate column): 8.65%
- Inhibition ([6]; concentration 0.3 nM, one value per replicate column, 0.0003 µM): 6.25
- inhibition at 0.003 µM ([6]; concentration 3 nM, one value per replicate column): 8.97%
- Inhibition ([6]; concentration 3 nM, one value per replicate column, 0.003 µM): 8.553
- inhibition at 0.03 µM ([6]; concentration 30 nM, one value per replicate column): 9.62%
- Inhibition ([6]; concentration 30 nM, one value per replicate column, 0.03 µM): 10.8553
- inhibition at 0.3 µM ([6]; concentration 300 nM, one value per replicate column): 10.3%
- Inhibition ([6]; concentration 300 nM, one value per replicate column, 0.3 µM): 11.1842
- inhibition at 3 µM ([6]; concentration 3000 nM, one value per replicate column): 13.8%
- Inhibition ([6]; concentration 3000 nM, one value per replicate column, 3 µM): 18.75
- inhibition at 30 µM ([6]; concentration 30000 nM, one value per replicate column): 70.2%
- Inhibition ([6]; concentration 30000 nM, one value per replicate column, 30 µM): 70.7237
- A450 ([6]; concentration 0.0001 nM): 0.554 and 0.551
- A450 ([6]; concentration 0.03 nM): 0.553 and 0.548
- A450 ([6]; concentration 0.3 nM): 0.527 and 0.532
- A450 ([6]; concentration 3 nM): 0.526 and 0.525
- A450 ([6]; concentration 30 nM): 0.524 and 0.518
- A450 ([6]; concentration 300 nM): 0.522 and 0.517
- A450 ([6]; concentration 3000 nM): 0.511 and 0.494
- A450 ([6]; concentration 30000 nM): 0.335 and 0.336
- IC50 ([6]; read-out: IC50 (μM) EGFR, ELISA, 3 μmol/L ATP): 13 µM
- G0/G1 ([7]; PC-9, 4uM): 48.12 and 48.79 and 52.62
- G2/M ([7]; PC-9, 4uM): 15.27 and 15.42 and 15.56
- S ([7]; PC-9, 4uM): 36.61 and 35.79 and 31.83
- G0/G1 ([7]; PC-9, 8uM): 53.18 and 53.63 and 55.05
- G2/M ([7]; PC-9, 8uM): 16.92 and 17.15 and 16.88
- S ([7]; PC-9, 8uM): 29.9 and 29.22 and 28.08
- G0/G1 ([7]; PC-9, 12uM): 60.53 and 62.02 and 63.46
- G2/M ([7]; PC-9, 12uM): 23.33 and 22.27 and 17.86
- S ([7]; PC-9, 12uM): 16.14 and 15.71 and 18.68
- percentage of cells in the G0/G1 phase ([7]; PC-9, various concentrations, 24 h): induced higher percentages
- p-EGFR/EGFR ([8]; H460, 0.1 uM): 0.8093
- p-EGFR/EGFR relative to DMSO ([8]; H460, 0.1 uM): 0.9725
- p-EGFR/EGFR ([8]; H460, 1 uM): 0.8837
- p-EGFR/EGFR relative to DMSO ([8]; H460, 1 uM): 1.062
- p-EGFR/EGFR ([8]; H460, 10 uM): 0.3865
- p-EGFR/EGFR relative to DMSO ([8]; H460, 10 uM): 0.4645
- phosphorylation of EGFR (western blot) ([8]; H460, especially at 10 μM): suppressed
- p-EGFR/EGFR ([9]; PC-9, 0.1 uM): 0.3318
- p-EGFR/EGFR relative to DMSO ([9]; PC-9, 0.1 uM): 0.2965
- p-EGFR/EGFR ([9]; PC-9, 1 uM): 0.2248
- p-EGFR/EGFR relative to DMSO ([9]; PC-9, 1 uM): 0.2009
- p-EGFR/EGFR ([9]; PC-9, 10 uM): 0.5115
- p-EGFR/EGFR relative to DMSO ([9]; PC-9, 10 uM): 0.4571
- phosphorylation of EGFR (western blot) ([9]; PC-9, especially at 10 μM): suppressed
